One series deals with T1, PDE1B (Homo sapiens, UniProt Q01064).
T1 construct: host or cells: Sf9
In words: PDE1B enzyme inhibition (HTRF, cGMP substrate). In kind it is biochemical. The following applies: human recombinant enzyme (Sf9); FIGS. 14 and 15; test concentration not given. As for the experimental part: The effects of BL-230 and BL-236 compounds on the activity of PDE1B human enzymes were quantified by measuring the production of guanosine 5′-monophosphate (5′GMP) from cyclic guanosine monophosphate (cGMP), using human recombinant enzyme expressed in Sf9 cells, and the detection method was by using HTRF® (Homogeneous Time Resolved Fluorescence Technology).
The test compound, the reference compound or the water (control) were mixed with 0.07 U from the enzyme PDE1B in a buffer containing 44.4 mM Tris-hydroxymethyl aminomethane hydrochloride (Tris-HCl), 5.28 mM magnesium chloride (MgCl2), 0.88 mM calcium chloride (CaCl2), 2.64 mM dithiothreitol (DTT) and 0.198 U of calmodulin and 0.044% polysorbate 20 (Tween® 20) (pH 7.8). […] The fluorescence acceptor (Dye2 labeled cGMP) and fluorescence donor (anti-cGMP antibody labeled with europium cryptate) were added in the presence of 1 mM 3-isobutyl-1-methylxanthine (IBMX). After 60 minutes, the transfer of fluorescence corresponding to the amount of residual cGMP was measured at λex=337 nm, λem=620 nm and λem=665 nm using a microplate reader (RubyStar, BMG). The enzyme activity was determined by the signal division measured at 665 nm, by the measured signal at 620 nm (right). The results were expressed as a inhibition percentage of the control enzyme activity. […]

The next series addresses T2, PDE7A (Homo sapiens, UniProt Q13946).
T2 construct: host or cells: Sf9
Put plainly: PDE7A enzyme inhibition (HTRF, cAMP substrate). It counts as biochemical. Particulars: human recombinant enzyme (Sf9); FIGS. 14 and 15; test concentration not given. The source says: The effects of the BL-230 and BL-236 compounds on the activity of the human enzymes PDE2A1, PDE3A, PDE4A1A, PDE4B1, PDE7A, PDE8A1, and PDE10A2 and PDE11A4 were quantified by measuring the production of adenosine 5′-monophosphate (5′AMP) from cyclic adenosine monophosphate (cAMP), with human recombinant enzyme expressed in Sf9 cells and the detection method was by using HTRF®.
The test compound, the reference compound or water (control) were mixed with the enzyme (the enzymes and their amounts used are described in Table 1) in a buffer containing 44.4 mM Tris-HCl, 5.28 mM MgCl2, 2.64 mM DTT and 0.044% Tween® 20 (pH 7.8). Then, the reaction was initiated by the addition of 40 nM of cAMP substrate and the mixture was incubated for 30 minutes at room temperature. For basal control measurements, the enzyme was omitted from the reaction mixture. The fluorescence acceptor (Dye2 labeled cAMP) and fluorescence donor (anti-cAMP antibody labeled with europium cryptate) were added in the presence of 1 mM IBMX. After 60 minutes, the fluorescence corresponding to the amount of transfer residual cAMP was measured at λex=337 nm, λem=620 nm and λem=665 nm using a microplate reader (RubyStar, BMG). The enzyme activity was determined by the signal division measured at 665 nm, by the measured signal at 620 nm (right). The results were expressed as a inhibition percentage of the control enzyme activity. […]

The next series addresses T3, PDE4D2 (Homo sapiens, UniProt Q08499).
T3 construct: host or cells: Sf9
In words: PDE4D2 enzyme inhibition (HTRF, cAMP substrate). It counts as biochemical. Particulars: human recombinant enzyme (Sf9); FIGS. 14 and 15; test concentration not given. How it is done:
The effects of the BL-230 and BL-236 compounds on the activity of the human PDE4D2 enzyme were quantified by measuring the production from 5′ AMP cAMP using a human recombinant enzyme expressed in Sf9 cells and the method of detection used was the HTRF®.
The test compound, the reference compound or the water (control) were mixed with 0.75 U of PDE4D2 in a saline buffer solution balanced with Hanks (HBSS) (Invitrogen) supplemented, and 1.5 mM MgCl2, 0.1% bovine serum albumin (BSA). Then, the reaction was initiated by addition of 40 nM of cAMP substrate and the mixture is incubated for 15 minutes at 37° C. For basal control measurements, the enzyme was omitted from the reaction mixture. The fluorescence acceptor (Dye2 labeled cAMP) and fluorescence donor (anti-cAMP antibody labeled with europium cryptate) are added in the presence of 1 mM IBMX. After 60 minutes at room temperature, the fluorescence corresponding to the amount of transfer residual cAMP was measured at λex=337 nm, λem=620 nm and λem=665 nm using a microplate reader (Envision, Perkin Elmer). The enzyme activity was determined by the signal division measured at 665 nm, by the measured signal at 620 nm (ratio). The results were expressed as an inhibition percentage of the control enzyme activity. […]

T3 sequence (Q08499 303-809 limits assumed): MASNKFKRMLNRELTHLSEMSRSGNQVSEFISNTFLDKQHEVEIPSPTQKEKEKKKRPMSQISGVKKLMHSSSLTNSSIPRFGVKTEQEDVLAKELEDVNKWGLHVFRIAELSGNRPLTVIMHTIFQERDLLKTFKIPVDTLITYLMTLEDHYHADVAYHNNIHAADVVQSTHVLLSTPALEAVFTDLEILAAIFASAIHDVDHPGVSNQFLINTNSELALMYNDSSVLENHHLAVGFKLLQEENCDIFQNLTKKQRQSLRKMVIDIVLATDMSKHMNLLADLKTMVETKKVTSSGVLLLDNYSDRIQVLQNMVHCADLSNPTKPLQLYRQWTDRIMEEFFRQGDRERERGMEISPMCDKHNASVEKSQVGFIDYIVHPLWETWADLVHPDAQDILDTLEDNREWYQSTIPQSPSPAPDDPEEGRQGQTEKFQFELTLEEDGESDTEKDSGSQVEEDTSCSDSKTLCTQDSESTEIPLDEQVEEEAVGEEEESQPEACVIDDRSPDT
T2 sequence (Q13946 whole entry): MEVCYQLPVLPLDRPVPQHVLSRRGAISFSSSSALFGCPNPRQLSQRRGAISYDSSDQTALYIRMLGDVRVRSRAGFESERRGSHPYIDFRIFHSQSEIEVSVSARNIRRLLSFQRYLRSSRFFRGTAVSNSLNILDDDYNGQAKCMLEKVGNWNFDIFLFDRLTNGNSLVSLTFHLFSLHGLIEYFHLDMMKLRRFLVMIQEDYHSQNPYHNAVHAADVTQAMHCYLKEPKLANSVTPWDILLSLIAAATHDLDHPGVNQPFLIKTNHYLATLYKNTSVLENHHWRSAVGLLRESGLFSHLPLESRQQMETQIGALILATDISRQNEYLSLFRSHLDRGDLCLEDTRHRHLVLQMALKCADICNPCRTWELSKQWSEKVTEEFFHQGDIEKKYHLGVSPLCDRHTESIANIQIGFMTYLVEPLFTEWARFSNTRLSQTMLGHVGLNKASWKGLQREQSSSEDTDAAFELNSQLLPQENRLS

Consider `O=C1C2=C(c3c[nH]c4ccccc34)OC(c3ccc4c(c3)OCO4)N2C(=O)CN1CCO` (centres unmarked) [BL-230, 3-(benzo[d][1,3]dioxol-5yl)-7-(2-hydroxyethyl)-1-(1H-indol-3-yl)-6,7-dihydro-3H-oxazolo[3,4-a]pyrazine-5,8-dione], for which the melting point is 254 to 258 °C. Moreover, the “inhibition of PDE1B enzyme activity” value on PDE1B is given as “did not inhibit”. Moreover, on PDE7A, the “inhibition of PDE7A enzyme activity” value was “did not inhibit”. For the same molecule, the “inhibition of PDE4D2 enzyme activity” value at PDE4D2 was 55%.
In turn, `C[C@@H](CO)N1CC(=O)N2C(=C(c3c[nH]c4ccccc34)OC2c2ccc3c(c2)OCO3)C1=O` (stereo partly drawn) [BL-236, 3-(benzo[d][1,3]dioxol-5yl)-7-((S)1-hydroxypropan-2yl)-1-(1H-indol-3-yl)-6,7-dihydro-3H-oxazolo[3,4-a]pyrazine-5,8-dione] displayed a melting point of 235 to 239 °C. The “inhibition of PDE1B enzyme activity” value on PDE1B was “did not inhibit”. Further, the “inhibition of PDE7A enzyme activity” value at PDE7A is reported as “did not inhibit”. The “inhibition of PDE4D2 enzyme activity” value at PDE4D2 is recorded as “no inhibitory effect”.

(Values after patent US9359378B2, “Substituted oxazolo[3,4-a]pyrazines as pharmaceutcals” (BIOLAB SANUS FARMACÊUTICA LTDA., priority 2014, dated 2016).)
